# Earlier results as cited in patent US20220304959A1, “TREATMENT OF LONG HAULERS SYNDROME WITH NICLOSAMIDE” (First Wave BioPharma, priority 2021, published 2022).
smiles,measurement,setting,value
"O=C(Nc1ccc([N+](=O)[O-])cc1Cl)c1cc(Cl)ccc1O [niclosamide, 5-chloro-N-(2-chloro-4-nitrophenyl)-2-hydroxybenzamide]",Overall safety profile,"administered to millions of people, including children",very good safety profile
same,"Less frequently reported AEs: rash, oral irritation, fever, rectal bleeding, weakness, bad taste in mouth, sweating, palpitation, constipation, alopecia, oedema of an arm, backache, irritability","human use, literature reports",< 1%
same,"Other reported AEs: vomiting; abdominal discomfort possibly associated with anorexia, diarrhea, drowsiness, dizziness and headache","human use, literature reports",1-4 % of patients
